From patent publication US11530244B2, “Cyclic polypeptides for PCSK9 inhibition” (priority 2018, dated 2022)
Starred links: 1 amine or outer side, 2 acyl side, 3 side chain; linkers in the order of their positions; H or OH if unused. Positions of bridges follow the written chain, without caps; N, C: chain ends. Non-standard residues stand in square brackets, D forms with d. Residues, ends and D or L forms follow the SMILES beside them. Phe(3-CH2NH2) = O=C([C@H](Cc1cccc(CN[*:3])c1)N[*:1])[*:2]; Trp(5-F) = N[C@@H](Cc1c[nH]c2ccc(F)cc12)C(=O)O; Phe(4-CH2NH2) = NCc1ccc(C[C@H](N)C(=O)O)cc1; Pro(cis-4-F) = O=C(O)[C@@H]1C[C@H](F)CN1; isoGln = NC(=O)[C@H](CCC(=O)[*:2])N[*:1]; X4 = O=C(CCSCc1cccc(CSCCN[*:1])c1)[*:2]; mXylylene = c1cc(C[*:1])cc(C[*:2])c1; Glutaryl = O=C(CCCC(=O)[*:2])[*:1]; X7 = O=C(Cc1ccc(CN[*:1])cc1)[*:2]; Cha = N[C@@H](CC1CCCCC1)C(=O)O; NMeL = CN[C@@H](CC(C)C)C(=O)O; Suc = O=C(CCC(=O)[*:2])[*:1]; αMeP = C[C@@]1(C(=O)O)CCCN1; X2 = O=C(C[*:2])[*:1]; Mpa = O=C(O)CCS

How the values were obtained:
Format in all cases: binding
[1] = target: human PCSK9 / human LDLR EGFa domain interaction (Homo sapiens (Human), UniProt Q8NBP7); experiment: TR-FRET assay of inhibition of the PCSK9-LDLR protein-protein interaction; conditions: TR-FRET, 20 nM human PCSK9, 20 nM human LDLR EGFa domain, 2 hours room temperature; read-out: IC50
In short: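 Avitag-biotinylated human PCSK9 (20 nM) and his-tagged human LDLR EGFa domain (20 nM) were incubated with 5 nM Ulight streptavidin and 5 nM europium anti-6×His for 2 h at room temperature. Buffer: 50 mM HEPES, 150 mM NaCl, 5 mM CaCl2, 0.01% BSA, 0.01% P20. IC50 from 4-parameter fit of dose-response.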

PCSK9 [2] = target: T1, PCSK9 (Homo sapiens (Human), UniProt Q8NBP7); experiment: PCSK9 Alexa FRET Standard assay (displacement of AlexaFluor647 tagged cyclic peptide Reagent A); conditions: PCSK9 Alexa FRET Standard assay, 0.5 nM PCSK9, 20 nM AF cyclic peptide Reagent A; read-out: IC50
In short: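 TR-FRET displacement: 0.5 nM biotinylated PCSK9 with 1.25 nM Strep-Eu and 20 nM AlexaFluor-tagged cyclic peptide (final) in 50 mM HEPES pH 7.4, 0.15 M NaCl, 5 mM CaCl2, 0.01% BSA, 0.01% P20, ≥2 h at room temperature. IC50 from sigmoidal fit, converted to Ki via peptide KD; falling Eu counts flagged false positives.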

PCSK9 [3] = target: T1, PCSK9; experiment: PCSK9 Alexa FRET Plus assay (displacement of AlexaFluor647 tagged cyclic peptide Reagent B); conditions: 0.5 nM PCSK9, 960 nM AF cyclic peptide Reagent B
In short: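 TR-FRET displacement with final 0.5 nM biotinylated PCSK9, 1.25 nM Strep-Eu and 960 nM AlexaFluor-tagged cyclic peptide in HEPES pH 7.4, NaCl, CaCl2, BSA, P20; ≥2 h at room temperature. IC50 from sigmoidal fit, converted to Ki using peptide KD. Falling europium counts flagged false positives.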

[4] = Alexa FRET Plus, read-out: IC50

human PCSK9 / human LDLR EGFa domain interaction, sequence (Q8NBP7 153-692): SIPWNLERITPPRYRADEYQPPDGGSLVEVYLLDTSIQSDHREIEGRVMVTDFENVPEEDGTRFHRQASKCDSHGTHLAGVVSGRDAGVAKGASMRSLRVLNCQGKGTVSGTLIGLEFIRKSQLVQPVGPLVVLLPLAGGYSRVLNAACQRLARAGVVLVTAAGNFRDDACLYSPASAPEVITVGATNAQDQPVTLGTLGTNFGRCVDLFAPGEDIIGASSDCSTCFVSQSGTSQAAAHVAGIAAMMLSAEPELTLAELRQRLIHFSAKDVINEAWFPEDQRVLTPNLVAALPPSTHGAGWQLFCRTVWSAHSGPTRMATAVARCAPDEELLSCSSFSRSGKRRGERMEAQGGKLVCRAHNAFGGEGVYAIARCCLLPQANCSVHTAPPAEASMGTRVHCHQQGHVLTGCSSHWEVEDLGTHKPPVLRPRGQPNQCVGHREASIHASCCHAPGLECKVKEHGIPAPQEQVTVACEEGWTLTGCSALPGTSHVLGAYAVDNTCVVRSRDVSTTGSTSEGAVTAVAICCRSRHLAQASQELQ
human PCSK9 / human LDLR EGFa domain interaction, sequence (Q8NBP7 31-152 partner): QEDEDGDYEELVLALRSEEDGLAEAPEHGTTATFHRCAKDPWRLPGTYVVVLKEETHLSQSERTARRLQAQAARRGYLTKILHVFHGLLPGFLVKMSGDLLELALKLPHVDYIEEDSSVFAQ
T1 sequence (Q8NBP7 153-692): as the sequence (Q8NBP7 153-692) above

IC50 [1] [nM]	SMILES	IC50 (PCSK9 [2]) [nM]	IC50 (PCSK9 [3]; [4]) [nM]	IC50 (PCSK9 [3]; IC50, Alexa FRET Plus) [nM]
0.1 to 100	COc1ccc(C[C@@H]2NC(=O)[C@H]([C@@H](C)OC)NC(=O)[C@H](CCC(=O)O)NC(=O)[C@H](Cc3c[nH]c4ccc(F)cc34)NC(=O)[C@H](Cc3cccc(CN)c3)NC(=O)[C@@H](C)NC(=O)[C@H](C)NC(=O)CCSCc3cccc(c3)CSCCNC(=O)[C@]3(C)CCCN3C2=O)cc1 [Compound 343] (cyclo(A[dA][Phe(3-CH2NH2)][Trp(5-F)]ET(Me)Y(Me)[αMeP][X4]))	0.11 to 100	0.1 to 100	–
0.1 to 100	NCCCC[C@@H]1NC(=O)CCSCc2cccc(c2)CSC[C@@H](C(N)=O)NC(=O)[C@@H]2CCCN2C(=O)[C@H](Cc2ccc(O)cc2)NC(=O)[C@H](Cc2c[nH]cn2)NC(=O)[C@H](CC(=O)O)NC(=O)[C@H](Cc2c[nH]c3ccc(F)cc23)NC(=O)[C@H](CC2CCCCC2)NC(=O)CNC1=O [Compound 223] ([Mpa]KG[Cha][Trp(5-F)]DHYPC-NH2; linker 1-10 via mXylylene)	0.11 to 100	100 to 500	–
0.1 to 100	COc1ccc(C[C@@H]2NC(=O)[C@@H](CC(C)C)NC(=O)[C@H]([C@@H](C)OC)NC(=O)CCSCc3cccc(c3)CSC[C@@H](C(N)=O)NC(=O)[C@]3(C)CCCN3C(=O)[C@H](Cc3ccc(OC)cc3)NC(=O)[C@H]([C@@H](C)OC)NC(=O)[C@H](CC(C)C)N(C)C(=O)[C@H](Cc3ccc(OC)cc3)NC2=O)cc1 [Compound 035] ([Mpa]T(Me)[dL]Y(Me)Y(Me)[NMeL]T(Me)Y(Me)[αMeP]C-NH2; linker 1-10 via mXylylene)	0.11 to 100	0.1 to 100	–
0.1 to 100	CC(=O)N[C@H]1CCCCNC(=O)COc2ccc(cc2)C[C@@H](C(N)=O)NC(=O)[C@]2(C)CCCN2C(=O)[C@H](Cc2ccc(O)cc2)NC(=O)[C@H](Cc2cnc[nH]2)NC(=O)[C@H](CC(=O)O)NC(=O)[C@H](Cc2c[nH]c3ccc(F)cc23)NC(=O)[C@H](Cc2c[nH]c3ccc(F)cc23)NC(=O)CNC1=O [Compound 365] (Ac-KG[Trp(5-F)][Trp(5-F)]DHY[αMeP]Y-NH2; linker 1-9 via X2)	0.11 to 100	0.1 to 100	–
–	COc1ccc(C[C@@H]2NC(=O)[C@H](Cc3cnc[nH]3)NC(=O)[C@H](CC(=O)O)NC(=O)[C@H](Cc3c[nH]c4ccc(F)cc34)NC(=O)[C@H](Cc3c[nH]c4ccc(F)cc34)NC(=O)[C@@H](C)NC(=O)CCc3cn(nn3)-c3ccc(cc3)C[C@@H](C(N)=O)NC(=O)[C@]3(C)CCCN3C2=O)cc1 [Compound 416]	0.11 to 100	0.1 to 100	–
–	COc1ccc(C[C@@H]2NC(=O)[C@H]([C@@H](C)O)NC(=O)[C@@H]3C[C@H](F)CN3C(=O)[C@H](Cc3c[nH]c4ccc(F)cc34)NC(=O)[C@H](Cc3c[nH]c4ccc(F)cc34)NC(=O)[C@@H](C)NC(=O)[C@H](CCCCN)NC(=O)CCC(=O)NCc3ccc(cc3)C[C@@H](C(N)=O)NC(=O)[C@]3(C)CCCN3C2=O)cc1 [Compound 097] (K[dA][Trp(5-F)][Trp(5-F)][Pro(cis-4-F)]TY(Me)[αMeP][Phe(4-CH2NH2)]-NH2; linker N-9 via Suc)	0.11 to 100	500 to 5000	–

SMILES	IC50 [1] [nM]	IC50 (PCSK9 [2]) [nM]	IC50 (PCSK9 [3]; [4]) [nM]	IC50 (PCSK9 [3]; IC50, Alexa FRET Plus) [nM]
COc1ccc(C[C@@H]2NC(=O)[C@H](Cc3cnc[nH]3)NC(=O)[C@H](CC(=O)O)NC(=O)[C@H](Cc3c[nH]c4ccc(F)cc34)NC(=O)[C@H](Cc3c[nH]c4ccc(F)cc34)NC(=O)[C@@H](C)NC(=O)[C@H](NC(C)=O)CCCCNC(=O)Cc3ccc(cc3)CNC(=O)CC[C@@H](C(N)=O)NC(=O)[C@]3(C)CCCN3C2=O)cc1 [Compound 398] (Ac-[dK][dA][Trp(5-F)][Trp(5-F)]DHY(Me)[αMeP][isoGln][X7]; lactam 1-C)	0.1 to 100	0.11 to 100	100 to 500	–
COc1ccc(C[C@@H]2NC(=O)[C@H]([C@@H](C)O)NC(=O)[C@@H]3C[C@H](F)CN3C(=O)[C@H](Cc3c[nH]c4ccc(F)cc34)NC(=O)[C@H](Cc3c[nH]c4ccc(F)cc34)NC(=O)[C@@H](C)NC(=O)CNC(=O)CCCCNCc3ccc(cc3)C[C@@H](C(N)=O)NC(=O)[C@]3(C)CCCN3C2=O)cc1 [Compound 130]	0.1 to 100	0.11 to 100	–	100 to 500
C[C@@H]1NC(=O)CCCC(=O)NCc2ccc(cc2)C[C@@H](C(N)=O)NC(=O)[C@]2(C)CCCN2C(=O)[C@H](Cc2ccc(O)cc2)NC(=O)[C@H](Cc2cnc[nH]2)NC(=O)[C@H](CC(=O)O)NC(=O)[C@H](Cc2c[nH]c3ccc(F)cc23)NC(=O)[C@H](Cc2c[nH]c3ccc(F)cc23)NC(=O)CNC1=O [Compound 366] (AG[Trp(5-F)][Trp(5-F)]DHY[αMeP][Phe(4-CH2NH2)]-NH2; linker N-9 via Glutaryl)	0.1 to 100	0.11 to 100	0.1 to 100	–
